Reference: US20120231083A1, “SUSTAINED RELEASE CANNABINOID MEDICAMENTS” (The Board of Trustees of the University of Illinois, priority 2010, published 2012)
Read-outs that look alike come from different tables or passages of the source.

What was measured:
[1] = described in US 2007/0072939; not shown for sleep related disorders; cited from earlier work
[2] = test system: rat model of sleep apnea; conditions: 10 mg/kg intraperitoneal, US 2004/0127572; cited from earlier work
[3] = test system: subjects; experiment: Oral dosing comparator 1: single immediate release dosage, AHI; format: in vivo, human
Procedure: (§1) For the purpose of comparing oral medicaments (i.e., providing a comparator), a medicament is orally administered to one or more subjects. The various factors affecting ADME (absorption, distribution, metabolism, and excretion) of the drug are standardized. For example, the patient is optionally a fasted patient and optionally falls asleep within one of 15 minutes or 30 minutes of laying down for bed. The same subjects are used for comparing different medicaments (after providing an appropriate wash-out period).
(§2) Plasma levels of the drug (e.g. THC) and metabolites thereof (e.g. 11-OH-THC) are taken at regular intervals (e.g. every 30 minutes) during a treatment window (e.g. from T0 to T8hr).
(§3) Therapeutic responses are recorded throughout the entire treatment window.
(§4) Therapeutic responses are correlated with pharmacokinetic parameters of the drug or metabolites thereof. The pharmacokinetic parameters include one or more of: plasma concentration and AUC (at various times).
An oral dosing “comparator” is provided by orally administering an immediate release dosage of cannabinoid (e.g. MARINOL® soft gel).

[4] = in vivo; cited from earlier work
[5] = test system: sleep apnea patient; experiment: Oral dosing comparator 2: two immediate release dosages in succession (T0 and T3), AHI; format: in vivo, human; conditions: immediate release dosages at T0 and T3
Procedure: as §1, §2, §3, §4
A second oral dosing comparator is provided by the method of Example 6, where a first immediate release dosage of cannabinoid (e.g. 2.5 mg MARINOL® soft gel) to a sleep apnea patient 30 minutes before bed at To. The patient is allowed to fall asleep and at a predetermined time, the subject is briefly woken to receive a second immediate release dosage of MARINOL® soft gel (e.g. at T3) and allowed to return to sleep.

[6] = cited from earlier work

SMILES	activity compared to the trans-(−)-enantiomer [1]	breathing cessation during non-REM (NREM) sleep [2]	therapeutic window ([3]; lower doses (e.g. 5 mg-20 mg))	AHI ([3]; subjects receiving 1 to 75 mg)	Side Effects, Digestive [4]	Side Effects, Musculoskeletal [4]	Side Effects, Skin and Appendages [4]	Side Effects, Special senses [4]	therapeutic window ([5]; lower doses (e.g. 5 mg-20 mg))	AHI ([5]; subjects receiving 1 to 75 mg)	Side effects with co-administration ([6]; with antipyrine, barbiturates)	Side effects with co-administration ([6]; with atropine, scopolamine, antihistamines, other anticholinergic agents)	Side effects with co-administration ([6]; with barbiturates, benzodiazepines, ethanol, lithium, opioids, buspirone, antihistamines, muscle relaxants, other CNS depressants)	Side effects with co-administration ([6]; with disulfiram, person who smoked marijuana)	Side effects with co-administration ([6]; with fluoxetine 20 mg/day x 4 wks, person, smoking marijuana)	Side effects with co-administration ([6]; with theophylline, smoking of marijuana)
CCCCCc1cc(O)c2c(c1)OC(C)(C)C1CCC(C)=CC21 (single isomer, unassigned) [trans-(+) enantiomer, trans-(+)-THC]	about 1%	–	–	–	–	–	–	–	–	–	–	–	–	–	–	–
CCCCCc1cc(O)c2c(c1)OC(C)(C)[C@@H]1CCC(C)=C[C@@H]21 [Dronabinol, Delta-9-tetrahydrocannabinol]	–	reduced breathing cessation	does not consistently extend through the seventh or eighth hour of sleep	improved	Diarrhea*, fecal incontinence.	Myalgias.	Flushing*.	Vision difficulties.	generally extends through the seventh or eighth hour of sleep	improved	Decreased clearance of these agents,	super-additive tachycardia, drowsiness	Additive drowsiness and CNS depression	reversible hypomanic reaction was reported	became hypomanic after smoking marijuana;	Increased theophylline metabolism reported
